Assays:
Format in all cases: in vivo
DIO mice = test: Body composition in high fat diet mice, alone and in combination with incretin mimetics; conditions: for Fat mass (% change from baseline) / Lean mass (% change from baseline): as E44, NMR
Protocol: Experiments were performed in vivo to investigate the potential for additive or synergistic effects between exemplary ActRIIB-ECD polypeptide constructs and incretin mimetics.

[1] = Coformulation of P1372 and semaglutide: weight and body composition in mice (FIG. 18)
[2] = tested on: follicle-stimulating hormone (FSH); test: Circulating FSH levels in CD-1 mice; conditions: single s.c. injection, P1229 50 mg/kg, semaglutide 2 mg/kg
Protocol: Finally, circulating FSH levels were assessed throughout the study (FIG. 20D). […] This confirms that the expected pharmacodynamic effect of P1229 was not altered in the context of the co-formulation.

[3] = Single subcutaneous injection in CD-1 mice: body weight; conditions: CD-1 male mice, single s.c. injection; P1229 50 mg/kg, semaglutide 2 mg/kg

For semaglutide [reference compound], the “Body weight (% change from baseline)” value (DIO mice; DIO mice, 21 days s.c., P1307 20 mg/kg weekly, P1229 40 mg/kg twice weekly, semaglutide 40 μg/kg daily, tirzepatide 45 μg/kg daily, alone or combined) was −17.5%, the “visceral, epididymal, pericardial, peri-renal, and retroperitoneal white adipose tissue weights” value (DIO mice; DIO mice, D21) was “significantly decreased all white adipose tissue weights” and the “gastrocnemius and tibialis anterior weights” value (DIO mice; DIO mice, D21, P1229 with or without caloric restriction) was “no significant effect on muscle weights”. For the same substance, the “Fat mass (% change from baseline)” value (DIO mice) was −30.3%, the “Lean mass (% change from baseline)” value (DIO mice) was −10.6% and the “Fat mass (% change from baseline)” value (DIO mice; listed as semaglutide) was −30.3%. The “Lean mass (% change from baseline)” value (DIO mice; listed as semaglutide) was −10.6%, the lean muscle mass ([1]; 3 weeks) was “significant loss of lean muscle mass” and the total weight loss ([1]; 3 weeks after treatment) was “significant weight loss”. The “decrease of circulating FSH levels” value [2] was “did not show a significant effect” and the body weight [3] was “decreased body weight”.

Reference: patent US20260193317A1, “COMBINATION THERAPY WITH ACTRIIB RECEPTOR VARIANTS AND GLP-1 AGONISTS” (35PHARMA Inc., priority 2023, published 2026)
